From patent US20240025892A1 (priority 2020, published 2024) come the findings set out here.

For data set [1], the system named is CRTC2 (TORC2). Briefly: CRTC2 nuclear translocation (PathHunter U2OS). Format: cell-based. The settings on record: maximal CRTC2 nuclear translocation, U2OS cells, 90 minutes, maximum dose 10 μM. The source says: PathHunter® Nuclear Translocation cell lines are engineered to co-express two fusion proteins: a) Enzyme Donor (ED) tagged target protein; b) an Enzyme Acceptor (EA) tagged TAZ domain, derived from the CBP/P300 transcription factor, that localizes to the nucleus. Activation of the signaling pathway induces translocation of the ED-tagged target protein into the nucleus, which will force complementation of the two enzyme fragments, and result in the formation of a functional enzyme that will hydrolyze substrate and generate a chemiluminescent signal. U2OS CRTC2 (TORC2) translocation assays were performed in 384 well plates at Eurofins DiscoverX (Freemont, CA). Cells were treated with compounds for 90 minutes in experimental duplicates in 5 point dose response format (4-fold serial dilutions with a maximum dose of 10 μM) followed by […] readout on an Envision 2104 Multilabel Reader. In all experiments, forskolin was used as a positive control and maximal CRTC2 nuclear translocation induced by each compound is expressed as a percentage of the signal stimulated by forskolin.
Representative data are shown in FIG. 4A and presented as percent of the positive control (forskolin) signal.

Data set [2] deals with NanoLuc-SIK2 fusion in HEK293 cells (Homo sapiens (Human), UniProt Q9H0K1). Description: cell-based. As to the method:
Assays were performed at Reaction Biology Corporation (Malvern, PA) in HEK293 cells from ATCC in 384 well plate format using Promega's NanoBRET TE intracellular kinase assay platform. HEK293 cells transiently expressing NanoLuc-SIK2 fusion vector were seeded into 384 well plates. Cells were pre-treated with the NanoBRET Tracer K-4 and then treated with compounds for 60 minutes in 10 point dose response format. […] IC50 values were calculated and IC50 curves were plotted using the GraphPad Prism 4 program on a sigmoidal dose response equation.

Data set [3] addresses SIK1 (Homo sapiens (Human), UniProt P57059). Description: In vitro SIK1 kinase assay. The format is biochemical. As to the method:
(§1) Assays were performed in base reaction buffer (20 mM Hepes (pH 7.5), 10 mM MgCl2, 1 mM EGTA, 0.02% Brij35, 0.02 mg/mL BSA, 0.1 mM Na3VO4, 2 mM DTT, 1% DMSO). Compounds were dissolved in 100% DMSO in a 10 mM stock. […] Assays were performed for 20 minutes at room temperature, after which time ^33P-ATP (10 μCi/μL) was added followed by incubation for another 120 minutes at room temperature. Thereafter, radioactivity incorporated into the pEY peptide substrate was detected by filter-binding method. Kinase activity data were expressed as the percent remaining kinase activity in test samples compared to DMSO reactions. IC50 values and curve fits were obtained using Prism (GraphPad Software).

Data set [4] has as its target Recombinant SIK2 (Homo sapiens (Human), UniProt Q9H0K1). Briefly: biochemical. The note with it: recombinant SIK2 2.5 nM, 1 μM ATP; read-out: SIK2 IC50. The method, then: as §1
For data set [5], the system named is RANKL. Description: RANKL gene expression in Ocy454 cells (RT-qPCR).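 Further: Ocy454 cells moved to 37 °C for osteocytic differentiation before compound exposure, RANKL mRNA by SYBR Green qRT-PCR, 2^−ΔΔCT with β-actin normalization, duplicate wells.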 The settings on record: maximal RANKL fold induction versus DMSO, four hours.
The target of data set [6] is SIK3 (Homo sapiens (Human), UniProt Q9Y2K2). Briefly: In vitro SIK3 kinase assay. The format is biochemical. The method, then:
as §1

Setting [7] is: HEK293 cells, compounds for 60 minutes, read-out: SIK2 NanoBRET.

Each structure is given as a SMILES string. Read-outs that look alike come from different tables or passages of the source.

Chain of Recombinant SIK2 (Q9H0K1 whole entry): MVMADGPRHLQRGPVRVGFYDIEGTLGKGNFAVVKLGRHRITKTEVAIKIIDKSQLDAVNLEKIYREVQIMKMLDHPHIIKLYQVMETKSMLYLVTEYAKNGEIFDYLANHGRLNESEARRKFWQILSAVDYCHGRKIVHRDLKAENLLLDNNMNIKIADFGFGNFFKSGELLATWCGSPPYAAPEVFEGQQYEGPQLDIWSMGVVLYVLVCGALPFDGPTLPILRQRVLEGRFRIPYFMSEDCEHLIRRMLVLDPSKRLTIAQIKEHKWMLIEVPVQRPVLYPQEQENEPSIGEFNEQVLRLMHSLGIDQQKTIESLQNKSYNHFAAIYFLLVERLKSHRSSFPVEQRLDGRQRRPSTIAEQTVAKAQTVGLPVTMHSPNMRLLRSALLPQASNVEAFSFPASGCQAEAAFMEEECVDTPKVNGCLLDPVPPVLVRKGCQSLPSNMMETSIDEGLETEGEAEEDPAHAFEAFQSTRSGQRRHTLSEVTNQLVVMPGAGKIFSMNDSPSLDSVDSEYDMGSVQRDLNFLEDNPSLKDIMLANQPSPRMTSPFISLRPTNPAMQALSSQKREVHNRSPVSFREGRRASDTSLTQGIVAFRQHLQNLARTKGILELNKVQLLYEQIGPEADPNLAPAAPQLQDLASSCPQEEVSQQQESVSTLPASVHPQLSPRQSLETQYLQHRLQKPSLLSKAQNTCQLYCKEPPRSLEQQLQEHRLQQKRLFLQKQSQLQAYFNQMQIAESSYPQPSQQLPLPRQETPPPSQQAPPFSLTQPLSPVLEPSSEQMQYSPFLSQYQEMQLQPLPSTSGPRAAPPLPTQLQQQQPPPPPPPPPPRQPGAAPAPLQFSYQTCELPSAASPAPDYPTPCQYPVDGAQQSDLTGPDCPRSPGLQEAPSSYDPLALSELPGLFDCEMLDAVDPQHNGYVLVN
Chain of NanoLuc-SIK2 fusion in HEK293 cells (Q9H0K1 whole entry, the tested form may be a part): as the sequence (Q9H0K1 whole entry) above
Chain of SIK3 (Q9Y2K2 whole entry): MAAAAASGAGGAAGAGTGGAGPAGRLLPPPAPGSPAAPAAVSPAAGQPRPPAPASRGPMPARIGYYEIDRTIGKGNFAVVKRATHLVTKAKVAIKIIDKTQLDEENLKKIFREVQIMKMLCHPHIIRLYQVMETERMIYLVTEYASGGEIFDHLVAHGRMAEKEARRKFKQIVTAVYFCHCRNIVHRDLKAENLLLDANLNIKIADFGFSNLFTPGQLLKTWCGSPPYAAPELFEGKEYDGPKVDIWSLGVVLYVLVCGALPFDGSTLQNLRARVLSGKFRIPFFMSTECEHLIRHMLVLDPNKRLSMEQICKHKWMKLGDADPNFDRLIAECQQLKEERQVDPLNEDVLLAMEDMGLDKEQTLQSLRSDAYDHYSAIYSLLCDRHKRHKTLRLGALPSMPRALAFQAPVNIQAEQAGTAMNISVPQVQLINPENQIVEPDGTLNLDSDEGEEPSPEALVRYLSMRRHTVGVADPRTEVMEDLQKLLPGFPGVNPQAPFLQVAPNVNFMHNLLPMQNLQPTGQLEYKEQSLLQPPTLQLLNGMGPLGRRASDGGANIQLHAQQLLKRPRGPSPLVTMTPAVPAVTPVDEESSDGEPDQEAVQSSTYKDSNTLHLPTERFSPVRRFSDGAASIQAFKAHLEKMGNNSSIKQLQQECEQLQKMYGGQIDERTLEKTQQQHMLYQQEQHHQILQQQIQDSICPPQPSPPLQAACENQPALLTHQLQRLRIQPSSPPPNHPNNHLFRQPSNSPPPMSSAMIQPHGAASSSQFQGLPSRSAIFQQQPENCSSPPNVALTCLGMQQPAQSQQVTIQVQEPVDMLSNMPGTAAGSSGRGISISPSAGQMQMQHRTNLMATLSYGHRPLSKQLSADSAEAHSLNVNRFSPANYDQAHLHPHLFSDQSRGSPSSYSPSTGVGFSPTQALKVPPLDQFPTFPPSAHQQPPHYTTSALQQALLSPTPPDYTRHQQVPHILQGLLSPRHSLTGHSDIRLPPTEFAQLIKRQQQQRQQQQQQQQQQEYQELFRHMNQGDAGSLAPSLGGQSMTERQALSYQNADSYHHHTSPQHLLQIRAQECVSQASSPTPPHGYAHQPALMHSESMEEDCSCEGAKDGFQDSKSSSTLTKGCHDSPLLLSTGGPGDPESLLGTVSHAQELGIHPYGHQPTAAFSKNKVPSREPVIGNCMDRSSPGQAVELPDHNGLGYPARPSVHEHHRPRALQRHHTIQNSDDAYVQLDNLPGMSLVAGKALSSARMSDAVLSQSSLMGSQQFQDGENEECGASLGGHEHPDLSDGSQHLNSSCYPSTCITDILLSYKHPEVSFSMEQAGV
Chain of SIK1 (P57059 whole entry): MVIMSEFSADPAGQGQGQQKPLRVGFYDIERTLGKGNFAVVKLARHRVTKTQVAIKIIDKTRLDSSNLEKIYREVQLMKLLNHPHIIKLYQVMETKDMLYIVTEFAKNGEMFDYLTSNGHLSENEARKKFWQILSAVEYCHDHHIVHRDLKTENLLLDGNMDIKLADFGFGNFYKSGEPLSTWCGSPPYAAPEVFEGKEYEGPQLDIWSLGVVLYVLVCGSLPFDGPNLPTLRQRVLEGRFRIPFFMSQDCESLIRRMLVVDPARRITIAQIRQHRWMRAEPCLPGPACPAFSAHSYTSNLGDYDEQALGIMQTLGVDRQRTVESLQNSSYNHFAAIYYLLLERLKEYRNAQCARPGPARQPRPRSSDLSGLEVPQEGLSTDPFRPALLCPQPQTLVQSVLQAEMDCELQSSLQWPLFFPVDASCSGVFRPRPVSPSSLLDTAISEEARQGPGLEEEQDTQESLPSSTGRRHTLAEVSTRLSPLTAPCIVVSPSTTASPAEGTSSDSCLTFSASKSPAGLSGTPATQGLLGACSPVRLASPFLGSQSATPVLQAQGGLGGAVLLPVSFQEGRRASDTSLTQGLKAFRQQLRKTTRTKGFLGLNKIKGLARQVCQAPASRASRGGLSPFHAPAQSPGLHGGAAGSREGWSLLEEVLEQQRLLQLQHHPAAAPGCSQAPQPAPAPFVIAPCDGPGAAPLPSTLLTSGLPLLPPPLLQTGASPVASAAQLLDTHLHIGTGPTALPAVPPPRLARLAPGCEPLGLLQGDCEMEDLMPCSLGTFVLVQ

For `CC1(COc2ccc3c(c2)ncn3-c2ccc3cccc(N4CCC5(CCN5)CC4)c3n2)COC1` [Example 3, 2-(5-((3-methyloxetan-3-yl)methoxy)-1H-benzo[d]imidazol-1-yl)-8-(1,7-diazaspiro[3.5]nonan-7-yl)quinoline], the “CRTC2 Efficacy (% of forskolin)” value in data set [1] is listed as 88.5 % of forskolin. The IC50 in data set [2] (setting [7]) is 8.86 nM; in data set [3], 18.4 nM; in data set [4], 0.979 nM; in data set [6], 2.24 nM. In data set [5], the “RANKL Fold Induction” value came out at 57.08 fold.
Take `CC1(COc2ccc3c(c2)ncn3-c2ccc3cccc(N4CC(N)C4)c3n2)COC1` [Example 7, 1-(2-(5-((3-methyloxetan-3-yl)methoxy)-1H-benzo[d]imidazol-1-yl)quinolin-8-yl)azetidin-3-amine]: the “CRTC2 Efficacy (% of forskolin)” value in data set [1] was 89 % of forskolin. Also, the IC50 was determined as 43.2 nM in data set [2] (setting [7]), 138 nM in data set [3], 8.35 nM in data set [4] and 11.5 nM in data set [6]. Besides, in data set [5], the “RANKL Fold Induction” value worked out at 30.37 fold.
Take `CN1CCOCC12CCN(c1cccc3ccc(-n4cnc5cc(OCC6(C)COC6)ccc54)nc13)CC2` [Example 10, 1-Methyl-9-[2-[5-[(3-methyloxetan-3-yl)methoxy]benzimidazol-1-yl]-8-quinolyl]-4-oxa-1,9-diazaspiro[5.5]undecane]: in data set [1], the “CRTC2 Efficacy (% of forskolin)” value is reported as 75.8 % of forskolin. Moreover, the IC50 in data set [3] amounted to 37.8 nM; in data set [4], 2.11 nM; in data set [6] it was 3.71 nM. For the same compound, the “RANKL Fold Induction” value in data set [5] came out at 58.64 fold.
Regarding `COCCN1CCC12CCN(c1cccc3ccc(-n4cnc5cc(OCC6(C)COC6)ccc54)nc13)CC2` [Example 12, 8-[1-(2-Methoxyethyl)-1,7-diazaspiro[3.5]nonan-7-yl]-2-[5-[(3-methyloxetan-3-yl)methoxy]benzimidazol-1-yl]quinoline], the “CRTC2 Efficacy (% of forskolin)” value in data set [1] is 37.6 % of forskolin. For the same compound, the IC50 in data set [2] came out at 925 nM; in data set [3] it was 140 nM; in data set [4], 4.9 nM; in data set [6], 11.9 nM. In addition, in data set [5], the “RANKL Fold Induction” value came out at 62.52 fold.
As to `NC1CCN(c2cccc3ncc(-n4cnc5cc(OCC6CS(=O)(=O)C6)ccc54)nc23)CC1` [Example 14, 3-(((1-(8-(4-Aminopiperidin-1-yl)quinoxalin-2-yl)-1H-benzo[d]imidazol-5-yl)oxy)methyl)thietane 1,1-dioxide], in data set [1], the “CRTC2 Efficacy (% of forskolin)” value is given as 94.2 % of forskolin. Also, the IC50 in data set [3] is 109 nM; in data set [4], 16.1 nM; in data set [6], 6.08 nM. The “RANKL Fold Induction” value in data set [5] is reported as 1.26 fold.
As to `CN1CC(c2cccc3ccc(-n4cnc5cc(OCC6(C)COC6)ccc54)nc23)C1` [Example 15, 8-(1-Methylazetidin-3-yl)-2-(5-((3-methyloxetan-3-yl)methoxy)-1H-benzo[d]imidazol-1-yl)quinoline], the “CRTC2 Efficacy (% of forskolin)” value in data set [1] is 63.5 % of forskolin. The IC50 was 4.37 nM in data set [3], 1.91 nM in data set [4] and 1.12 nM in data set [6]. Moreover, in data set [5], the “RANKL Fold Induction” value is 88.34 fold.
Take `N#Cc1ccc(-c2cnc3cc(C(=O)NCc4nc5ccccc5[nH]4)ccn23)cc1` [Example 22, N-((1H-benzo[d]imidazol-2-yl)methyl)-3-(4-cyanophenyl)imidazo[1,2-a]pyridine-7-carboxamide]: the “CRTC2 Efficacy (% of forskolin)” value in data set [1] is given as 12.9 % of forskolin. Also, the IC50 was found to be 117 nM in data set [2] (setting [7]), 13000 nM in data set [3], 5.58 nM in data set [4] and 497 nM in data set [6]. For the same compound, the “RANKL Fold Induction” value in data set [5] is given as 1.19 fold.
Take `N#Cc1ccc(-c2cnc3cc(C(=O)NCc4cn5ccccc5n4)ccn23)cc1` [Example 24, 3-(4-cyanophenyl)-N-(imidazo[1,2-a]pyridin-2-ylmethyl)imidazo[1,2-a]pyridine-7-carboxamide]: the “CRTC2 Efficacy (% of forskolin)” value in data set [1] was 21.2 % of forskolin. The IC50 in data set [2] (setting [7]) was 42.1 nM; in data set [3], 12500 nM; in data set [4], 11.4 nM; in data set [6] it was 835 nM. Further, the “RANKL Fold Induction” value in data set [5] is listed as 2.24 fold.
For `N#Cc1ccc(-c2cnc3cc(C(=O)NCc4nc5ccncc5[nH]4)ccn23)cc1` [Example 25, N-((3H-imidazo[4,5-c]pyridin-2-yl)methyl)-3-(4-cyanophenyl)imidazo[1,2-a]pyridine-7-carboxamide], the “CRTC2 Efficacy (% of forskolin)” value in data set [1] was 1.6 % of forskolin. The values for the IC50 in data set [3], in data set [4] and in data set [6] were 5450 nM, 9.74 nM and 1190 nM, respectively. Besides, the “RANKL Fold Induction” value in data set [5] is 1.10 fold.
For the compound `COc1ccc(OC)c(-c2cnc3cc(C(=O)NCc4cccnc4)ccn23)c1` [Example 31, 3-(2,5-dimethoxyphenyl)-N-(3-pyridylmethyl)imidazo[1,2-a]pyridine-7-carboxamide], the “CRTC2 Efficacy (% of forskolin)” value in data set [1] was 31.2 % of forskolin. Further, the results for the IC50 in data set [2], in data set [3] and in data set [6] were 4020 nM, 409 nM and 76.1 nM, respectively. Further, the “RANKL Fold Induction” value in data set [5] stood at 0.90 fold.
For the compound `N#Cc1ccc(-n2cnc3cc(C(=O)NCc4cn5ccccc5n4)ccc32)cc1` [Example 33, 1-(4-cyanophenyl)-N-(imidazo[1,2-a]pyridin-2-ylmethyl)-1H-benzo[d]imidazole-5-carboxamide], the “CRTC2 Efficacy (% of forskolin)” value in data set [1] is reported as 21.7 % of forskolin. Also, the IC50 in data set [2] (setting [7]) is 44.8 nM; in data set [3], 5420 nM; in data set [4], 14.2 nM; in data set [6] it was 2550 nM. For the same compound, in data set [5], the “RANKL Fold Induction” value is 0.92 fold.
Take `CCn1cc(-c2ccc3c(-c4ccc(C#N)cc4)cnn3c2)cn1` [Example 52, 4-[6-(1-Ethylpyrazol-4-yl)pyrazolo[1,5-a]pyridin-3-yl]benzonitrile]: in data set [1], the “CRTC2 Efficacy (% of forskolin)” value is 77 % of forskolin. Moreover, the IC50 was 4.77 nM in data set [3], 1.11 nM in data set [4] and 1.64 nM in data set [6]. For the same compound, in data set [5], the “RANKL Fold Induction” value was 19.99 fold.
Taken in the same sequence, the figures for `CCn1cc(-c2ccn3c(-c4ccc(-c5nnc(C)o5)cc4)cnc3c2)cn1` [Example 56, 2-(4-(7-(1-ethyl-1H-pyrazol-4-yl)imidazo[1,2-a]pyridin-3-yl)phenyl)-5-methyl-1,3,4-oxadiazole] were 4.9 % of forskolin, 3120 nM, 533 nM, 617 nM and 2.18 fold.
For the compound `CCc1nnc(-c2ccc(-c3cnc4cc(-c5cnn(C)c5)ccn34)cc2OC)o1` [Example 57, 2-ethyl-5-(2-methoxy-4-(7-(1-methyl-1H-pyrazol-4-yl)imidazo[1,2-a]pyridin-3-yl)phenyl)-1,3,4-oxadiazole], the IC50 in data set [2] (setting [7]) was found to be 90.8 nM; in data set [3] it was 90.8 nM; in data set [4] it was 8.76 nM; in data set [6], 11 nM. Moreover, in data set [5], the “RANKL Fold Induction” value is 13.68 fold.
For `CCc1nc(-c2c(OC)cc(-c3cnc4cc(-c5cnn(C)c5)ccn34)cc2OC)no1` [Example 61, 3-[2,6-Dimethoxy-4-[7-(1-methylpyrazol-4-yl)imidazo[1,2-a]pyridin-3-yl]phenyl]-5-ethyl-1,2,4-oxadiazole], the “CRTC2 Efficacy (% of forskolin)” value in data set [1] was 76.9 % of forskolin. In addition, the IC50 is 37.8 nM in data set [3], 3.07 nM in data set [4] and 8.25 nM in data set [6]. The “RANKL Fold Induction” value in data set [5] is on record as 19.00 fold.
As for `COc1cc(-c2cnc3cc(C(=O)NCc4ccc(C)nc4)ccn23)cc(OC)c1C(=O)NCC(F)(F)F` [Example 68, 3-[3,5-Dimethoxy-4-(2,2,2-trifluoroethylcarbamoyl)phenyl]-N-[(6-methyl-3-pyridyl)methyl]imidazo[1,2-a]pyridine-7-carboxamide], the “CRTC2 Efficacy (% of forskolin)” value in data set [1] is 12 % of forskolin. For the same compound, the results for the IC50 in data set [3], in data set [4] and in data set [6] were 94.7 nM, 12.4 nM and 8.67 nM, respectively. Further, in data set [5], the “RANKL Fold Induction” value is reported as 2.88 fold.
